Assays:
[1] = target: Glycogen synthase kinase-3 beta (Homo sapiens) (UniProt P49841); conditions: Compound concentration 1000.0 nM
[2] = tested on: Epidermal growth factor receptor (Homo sapiens), P00533 [L861Q]; conditions: Compound concentration 1000.0 nM
[3] = target: Serine/threonine-protein kinase DCLK1 (Homo sapiens) (UniProt O15075); conditions: Compound concentration 1000.0 nM
[4] = target: Wee1-like protein kinase (Homo sapiens) (UniProt P30291); conditions: Compound concentration 1000.0 nM
[5] = target: Serine/threonine-protein kinase PLK1 (Homo sapiens) (UniProt P53350); conditions: Compound concentration 1000.0 nM
[6] = target: Mitogen-activated protein kinase kinase kinase kinase 5 (Homo sapiens) (UniProt Q9Y4K4); conditions: Compound concentration 1000.0 nM
[7] = target: Mitogen-activated protein kinase kinase kinase kinase 3 (Homo sapiens) (UniProt Q8IVH8); conditions: Compound concentration 1000.0 nM
[8] = target: Insulin receptor-related protein (Homo sapiens) (UniProt P14616); conditions: Compound concentration 1000.0 nM
[9] = target: Serine/threonine-protein kinase pim-1 (Homo sapiens) (UniProt P11309); conditions: Compound concentration 1000.0 nM
Serine/threonine-protein kinase pim-1 (Homo sapiens), sequence (P11309 whole entry, looked up): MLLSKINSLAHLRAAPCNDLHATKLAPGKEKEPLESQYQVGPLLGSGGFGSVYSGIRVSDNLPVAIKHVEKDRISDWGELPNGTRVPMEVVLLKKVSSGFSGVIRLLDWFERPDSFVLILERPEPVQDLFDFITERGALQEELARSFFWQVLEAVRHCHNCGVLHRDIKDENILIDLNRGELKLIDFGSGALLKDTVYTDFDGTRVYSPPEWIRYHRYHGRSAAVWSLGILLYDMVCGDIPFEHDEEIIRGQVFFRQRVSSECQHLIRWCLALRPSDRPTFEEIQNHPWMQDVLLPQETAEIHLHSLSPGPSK

[10] = target: Serine/threonine-protein kinase VRK2 (Homo sapiens) (UniProt Q86Y07); conditions: Compound concentration 1000.0 nM
Serine/threonine-protein kinase VRK2 (Homo sapiens), sequence (Q86Y07 whole entry): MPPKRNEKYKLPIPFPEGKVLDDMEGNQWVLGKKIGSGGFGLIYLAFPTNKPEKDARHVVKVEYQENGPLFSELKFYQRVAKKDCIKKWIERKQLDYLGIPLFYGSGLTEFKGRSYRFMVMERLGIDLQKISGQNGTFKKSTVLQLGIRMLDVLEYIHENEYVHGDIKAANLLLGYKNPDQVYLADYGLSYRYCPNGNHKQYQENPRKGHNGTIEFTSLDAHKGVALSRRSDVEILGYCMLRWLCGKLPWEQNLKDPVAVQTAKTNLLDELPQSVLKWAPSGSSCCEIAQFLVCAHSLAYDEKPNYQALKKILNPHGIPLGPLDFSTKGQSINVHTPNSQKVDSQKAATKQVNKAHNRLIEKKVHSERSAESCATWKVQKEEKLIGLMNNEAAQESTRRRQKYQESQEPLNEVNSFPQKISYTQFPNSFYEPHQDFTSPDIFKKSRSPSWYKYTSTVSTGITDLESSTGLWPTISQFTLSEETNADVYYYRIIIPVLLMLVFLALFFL

[11] = target: Mitogen-activated protein kinase 13 (Homo sapiens) (UniProt O15264); conditions: Compound concentration 1000.0 nM
[12] = target: Phosphatidylinositol 4,5-bisphosphate 3-kinase catalytic subunit gamma isoform (Homo sapiens) (UniProt P48736); conditions: Compound concentration 1000.0 nM
Phosphatidylinositol 4,5-bisphosphate 3-kinase catalytic subunit gamma isoform (Homo sapiens), sequence (P48736 whole entry, looked up, canonical isoform): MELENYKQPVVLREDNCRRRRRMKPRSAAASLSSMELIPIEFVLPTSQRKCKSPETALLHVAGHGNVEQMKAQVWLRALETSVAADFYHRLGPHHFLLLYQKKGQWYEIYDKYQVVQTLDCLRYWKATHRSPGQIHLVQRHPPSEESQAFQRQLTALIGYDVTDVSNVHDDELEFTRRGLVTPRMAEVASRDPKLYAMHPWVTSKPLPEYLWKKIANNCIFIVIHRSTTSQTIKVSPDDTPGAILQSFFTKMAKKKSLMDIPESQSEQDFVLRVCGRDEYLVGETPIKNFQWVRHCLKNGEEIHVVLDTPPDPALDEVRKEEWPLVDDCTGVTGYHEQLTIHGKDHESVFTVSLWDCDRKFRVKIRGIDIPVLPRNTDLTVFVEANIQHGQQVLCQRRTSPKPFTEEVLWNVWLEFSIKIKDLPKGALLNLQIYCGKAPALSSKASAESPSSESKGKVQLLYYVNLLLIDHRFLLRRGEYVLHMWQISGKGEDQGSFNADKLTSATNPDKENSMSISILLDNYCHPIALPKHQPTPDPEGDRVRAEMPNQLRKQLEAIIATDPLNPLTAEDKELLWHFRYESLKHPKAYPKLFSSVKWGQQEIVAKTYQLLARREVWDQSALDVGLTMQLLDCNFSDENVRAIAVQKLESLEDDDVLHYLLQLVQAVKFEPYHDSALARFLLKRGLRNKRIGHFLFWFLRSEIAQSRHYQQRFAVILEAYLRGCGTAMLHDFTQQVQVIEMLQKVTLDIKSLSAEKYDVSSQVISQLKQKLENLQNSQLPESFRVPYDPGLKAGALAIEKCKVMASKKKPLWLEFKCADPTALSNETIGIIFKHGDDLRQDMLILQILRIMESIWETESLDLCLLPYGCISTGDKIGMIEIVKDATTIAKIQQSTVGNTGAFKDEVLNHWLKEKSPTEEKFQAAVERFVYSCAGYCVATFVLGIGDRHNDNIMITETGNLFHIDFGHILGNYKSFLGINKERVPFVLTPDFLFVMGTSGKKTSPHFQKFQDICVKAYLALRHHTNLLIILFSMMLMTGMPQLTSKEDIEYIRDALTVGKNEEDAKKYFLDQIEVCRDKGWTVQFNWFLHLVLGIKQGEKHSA

[13] = target: Leukocyte tyrosine kinase receptor (Homo sapiens) (UniProt P29376); conditions: Compound concentration 1000.0 nM
[14] = target: LIM domain kinase 1 (Homo sapiens) (UniProt P53667); conditions: Compound concentration 1000.0 nM
[15] = target: Serine/threonine-protein kinase TNNI3K (Homo sapiens) (UniProt Q59H18); conditions: Compound concentration 1000.0 nM
[16] = target: Mitogen-activated protein kinase kinase kinase 10 (Homo sapiens) (UniProt Q02779); conditions: Compound concentration 1000.0 nM
[17] = target: Phosphatidylinositol 4-phosphate 5-kinase type-1 gamma (Homo sapiens) (UniProt O60331); conditions: Compound concentration 1000.0 nM
[18] = target: Epithelial discoidin domain-containing receptor 1 (Homo sapiens) (UniProt Q08345); conditions: Compound concentration 1000.0 nM
[19] = tested on: Mast/stem cell growth factor receptor Kit (Homo sapiens), P10721 [A829P]; conditions: Compound concentration 1000.0 nM
[20] = target: Activin receptor type-2B (Homo sapiens) (UniProt Q13705); conditions: Compound concentration 1000.0 nM
Activin receptor type-2B (Homo sapiens), sequence (Q13705 whole entry, canonical isoform): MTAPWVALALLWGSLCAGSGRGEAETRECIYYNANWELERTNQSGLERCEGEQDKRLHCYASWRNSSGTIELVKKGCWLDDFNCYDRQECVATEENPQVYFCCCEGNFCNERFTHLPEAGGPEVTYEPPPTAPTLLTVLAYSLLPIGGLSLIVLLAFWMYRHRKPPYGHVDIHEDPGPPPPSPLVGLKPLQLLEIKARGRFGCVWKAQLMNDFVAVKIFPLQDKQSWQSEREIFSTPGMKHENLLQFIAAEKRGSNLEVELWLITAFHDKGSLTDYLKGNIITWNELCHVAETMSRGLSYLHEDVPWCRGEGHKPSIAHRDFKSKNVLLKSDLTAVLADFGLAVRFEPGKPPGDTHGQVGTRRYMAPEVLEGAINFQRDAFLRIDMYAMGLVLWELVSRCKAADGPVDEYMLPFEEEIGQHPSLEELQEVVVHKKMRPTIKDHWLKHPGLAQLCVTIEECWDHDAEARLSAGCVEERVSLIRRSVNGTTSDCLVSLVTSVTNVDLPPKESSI

[21] = target: Phosphorylase b kinase gamma catalytic chain, skeletal muscle/heart isoform (Homo sapiens) (UniProt Q16816); conditions: Compound concentration 1000.0 nM
Phosphorylase b kinase gamma catalytic chain, skeletal muscle/heart isoform (Homo sapiens), sequence (Q16816 whole entry, looked up, canonical isoform): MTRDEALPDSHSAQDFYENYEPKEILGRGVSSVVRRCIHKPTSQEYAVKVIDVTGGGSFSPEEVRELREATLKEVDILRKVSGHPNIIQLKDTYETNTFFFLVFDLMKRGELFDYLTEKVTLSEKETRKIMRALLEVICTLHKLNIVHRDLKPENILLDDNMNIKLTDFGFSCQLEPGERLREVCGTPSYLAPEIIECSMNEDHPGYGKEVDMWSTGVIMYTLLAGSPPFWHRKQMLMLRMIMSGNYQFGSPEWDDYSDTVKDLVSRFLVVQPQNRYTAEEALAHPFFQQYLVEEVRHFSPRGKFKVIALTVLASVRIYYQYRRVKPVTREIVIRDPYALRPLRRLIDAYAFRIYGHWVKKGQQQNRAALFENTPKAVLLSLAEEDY

[22] = target: Protein kinase C beta type (Homo sapiens) (UniProt P05771); test: PKCbetaI (h) Millipore kinase activity assay; conditions: Compound concentration 1.0 uM
Protein kinase C beta type (Homo sapiens), sequence (P05771 2-671 limits assumed): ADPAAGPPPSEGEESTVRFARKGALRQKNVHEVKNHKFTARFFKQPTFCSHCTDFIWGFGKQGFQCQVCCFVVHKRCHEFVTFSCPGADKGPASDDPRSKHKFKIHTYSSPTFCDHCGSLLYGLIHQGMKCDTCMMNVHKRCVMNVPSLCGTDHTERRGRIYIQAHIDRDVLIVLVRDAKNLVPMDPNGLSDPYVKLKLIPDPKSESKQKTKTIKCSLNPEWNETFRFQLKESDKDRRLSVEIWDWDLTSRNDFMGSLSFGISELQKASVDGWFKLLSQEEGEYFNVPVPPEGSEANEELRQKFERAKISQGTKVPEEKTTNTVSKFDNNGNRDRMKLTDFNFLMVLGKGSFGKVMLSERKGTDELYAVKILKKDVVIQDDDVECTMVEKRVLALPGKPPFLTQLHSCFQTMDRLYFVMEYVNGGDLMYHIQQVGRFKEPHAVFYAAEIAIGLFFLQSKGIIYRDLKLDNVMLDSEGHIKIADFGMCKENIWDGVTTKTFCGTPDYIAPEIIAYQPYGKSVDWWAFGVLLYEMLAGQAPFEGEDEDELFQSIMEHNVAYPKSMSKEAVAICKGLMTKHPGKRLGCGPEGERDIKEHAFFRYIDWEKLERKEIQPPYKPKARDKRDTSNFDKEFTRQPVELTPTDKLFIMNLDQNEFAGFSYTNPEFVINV

[23] = target: Protein kinase C delta type (Homo sapiens) (UniProt Q05655); test: PKCdelta (h) Millipore kinase activity assay; conditions: Compound concentration 1.0 uM
Protein kinase C delta type (Homo sapiens), sequence (Q05655 whole entry, looked up): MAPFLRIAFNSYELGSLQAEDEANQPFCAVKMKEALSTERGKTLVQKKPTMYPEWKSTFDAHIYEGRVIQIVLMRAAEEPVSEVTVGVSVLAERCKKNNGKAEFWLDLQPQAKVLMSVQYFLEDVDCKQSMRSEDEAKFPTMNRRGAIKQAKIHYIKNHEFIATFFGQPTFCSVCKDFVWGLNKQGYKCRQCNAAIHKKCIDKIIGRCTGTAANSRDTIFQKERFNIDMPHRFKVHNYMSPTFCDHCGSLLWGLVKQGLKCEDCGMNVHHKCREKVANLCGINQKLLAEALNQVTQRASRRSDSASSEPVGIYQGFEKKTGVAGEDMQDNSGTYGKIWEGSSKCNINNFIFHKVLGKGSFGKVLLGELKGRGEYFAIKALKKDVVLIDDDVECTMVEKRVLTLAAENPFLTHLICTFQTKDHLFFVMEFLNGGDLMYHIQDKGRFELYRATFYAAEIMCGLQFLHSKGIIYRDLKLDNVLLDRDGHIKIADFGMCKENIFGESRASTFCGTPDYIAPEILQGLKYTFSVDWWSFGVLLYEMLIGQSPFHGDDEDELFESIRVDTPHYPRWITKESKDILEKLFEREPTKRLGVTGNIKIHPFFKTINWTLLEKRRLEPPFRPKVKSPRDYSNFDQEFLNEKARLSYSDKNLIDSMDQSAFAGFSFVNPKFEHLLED

[24] = target: Tyrosine-protein kinase receptor TYRO3 (Homo sapiens) (UniProt Q06418); test: Rse (h) Millipore kinase activity assay; conditions: Compound concentration 1.0 uM
[25] = target: SRSF protein kinase 1 (Homo sapiens) (UniProt Q96SB4); test: SRPK1 (h) Millipore kinase activity assay; conditions: Compound concentration 1.0 uM
[26] = target: Serine/threonine-protein kinase haspin (Homo sapiens) (UniProt Q8TF76); test: Haspin (h) Millipore kinase activity assay; conditions: Compound concentration 1.0 uM
[27] = target: Discoidin domain-containing receptor 2 (Homo sapiens) (UniProt Q16832); test: DDR2 (h) Millipore kinase activity assay; conditions: Compound concentration 1.0 uM
[28] = target: Glycogen synthase kinase-3 alpha (Homo sapiens) (UniProt P49840); test: GSK3alpha (h) Millipore kinase activity assay; conditions: Compound concentration 1.0 uM
Glycogen synthase kinase-3 alpha (Homo sapiens), sequence (P49840 2-483 limits assumed): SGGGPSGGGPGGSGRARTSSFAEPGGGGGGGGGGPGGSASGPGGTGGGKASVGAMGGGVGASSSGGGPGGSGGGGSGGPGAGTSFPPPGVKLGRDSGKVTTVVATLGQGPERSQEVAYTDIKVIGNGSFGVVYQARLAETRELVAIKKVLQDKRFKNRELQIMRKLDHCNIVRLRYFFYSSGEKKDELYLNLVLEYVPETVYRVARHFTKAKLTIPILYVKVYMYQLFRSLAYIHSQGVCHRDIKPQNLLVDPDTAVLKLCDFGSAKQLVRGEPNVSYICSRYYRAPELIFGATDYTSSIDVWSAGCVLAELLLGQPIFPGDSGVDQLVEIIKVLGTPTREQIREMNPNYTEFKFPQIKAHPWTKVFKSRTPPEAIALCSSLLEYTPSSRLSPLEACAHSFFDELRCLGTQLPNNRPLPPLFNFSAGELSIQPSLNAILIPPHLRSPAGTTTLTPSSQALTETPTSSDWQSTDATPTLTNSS

[29] = target: Sigma non-opioid intracellular receptor 1 (Homo sapiens) (UniProt Q99720); test: Inhibition of Sigma 1 at 10 µM in the Eurofins-Panlabs radioligand binding assay (Eurofins_assay_278110); set-up: ligand concentration 8 nM; conditions: Compound concentration 10.0 uM
Sigma non-opioid intracellular receptor 1 (Homo sapiens), sequence (Q99720 whole entry): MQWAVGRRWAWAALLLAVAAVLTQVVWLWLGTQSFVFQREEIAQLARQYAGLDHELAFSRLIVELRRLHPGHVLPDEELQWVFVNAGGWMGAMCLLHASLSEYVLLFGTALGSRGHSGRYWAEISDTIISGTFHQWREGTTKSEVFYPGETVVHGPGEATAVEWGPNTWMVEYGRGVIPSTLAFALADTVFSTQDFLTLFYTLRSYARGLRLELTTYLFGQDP

[30] = target: Calcium/calmodulin-dependent protein kinase type 1 (Homo sapiens) (UniProt Q14012); test: CaMKI (h) Millipore kinase activity assay; conditions: Compound concentration 1.0 uM
[31] = target: Tyrosine-protein kinase Fer (Homo sapiens) (UniProt P16591); test: Fer (h) Millipore kinase activity assay; conditions: Compound concentration 1.0 uM
[32] = target: T1, cGMP-dependent protein kinase 1 (Homo sapiens) (UniProt Q13976); test: PKG1beta (h) Millipore kinase activity assay; conditions: Compound concentration 1.0 uM
T1 sequence (whole entry): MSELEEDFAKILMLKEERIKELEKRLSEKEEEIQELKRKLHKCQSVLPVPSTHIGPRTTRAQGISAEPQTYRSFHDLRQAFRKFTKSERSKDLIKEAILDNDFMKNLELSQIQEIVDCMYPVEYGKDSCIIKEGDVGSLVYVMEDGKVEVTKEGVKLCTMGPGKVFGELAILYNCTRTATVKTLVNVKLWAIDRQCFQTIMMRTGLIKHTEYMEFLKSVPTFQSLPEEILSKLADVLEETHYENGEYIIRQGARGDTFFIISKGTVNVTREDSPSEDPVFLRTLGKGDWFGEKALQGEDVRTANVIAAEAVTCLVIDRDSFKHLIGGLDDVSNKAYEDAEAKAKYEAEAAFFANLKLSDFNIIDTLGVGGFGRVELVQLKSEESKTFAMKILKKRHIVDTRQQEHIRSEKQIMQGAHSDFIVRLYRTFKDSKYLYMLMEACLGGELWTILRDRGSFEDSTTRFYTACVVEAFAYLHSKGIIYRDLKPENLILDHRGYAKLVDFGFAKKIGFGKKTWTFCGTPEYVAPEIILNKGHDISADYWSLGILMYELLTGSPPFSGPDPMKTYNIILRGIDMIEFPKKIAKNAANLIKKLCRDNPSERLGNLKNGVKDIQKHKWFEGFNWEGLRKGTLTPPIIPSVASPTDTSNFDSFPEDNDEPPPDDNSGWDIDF

[33] = target: GABA-A receptor; anion channel (Rattus norvegicus) (UniProt O09028+P15431+P18506+P18508+P19969+P20236+P23574+P23576+P28471+P28473+P30191+P62813+P63079+P63138+Q91ZM7+Q9ES14); test: Inhibition of GABAA, Muscimol, Central at 10 µM in the Eurofins-Panlabs radioligand binding assay (Eurofins_assay_226500); assay type: protein-complex assay; conditions: Compound concentration 10.0 uM
Rattus norvegicus = species on record: Rattus norvegicus; test: Inhibition of Glutamate, NMDA, Phencyclidine at 10 µM in the Eurofins-Panlabs radioligand binding assay (Eurofins_assay_233000); assay type: protein-complex assay; conditions: Compound concentration 10.0 uM

CC1=C(C#N)[C@@H](c2ccc3[nH]nc(C)c3c2)C(C#N)=C(c2ccc(Cl)cc2)N1 [BAY-827]
inactive: residual activity [1] 69.6% | residual activity [2] 100% | residual activity [3] 79.2% | residual activity [4] 100% | residual activity [5] 100% | residual activity [6] 54% | residual activity [7] 100% | residual activity [8] 100% | residual activity [9] 100% | residual activity [10] 100% | residual activity [11] 100% | residual activity [12] 100% | residual activity [13] 100% | residual activity [14] 100% | residual activity [15] 94.3% | residual activity [16] 100% | residual activity [17] 99.5% | residual activity [18] 84.5% | residual activity [19] 100% | residual activity [20] 100% | residual activity [21] 100%

CC1=C(C#N)C(c2ccc3[nH]nc(C)c3c2)C(C#N)=C(C)N1 [BAY-474]
inactive: inhibition [22] -4% | inhibition [23] 2% | inhibition [24] 28% | inhibition [25] 11% | inhibition [26] 2% | inhibition [27] 12% | inhibition [28] -3% | inhibition [29] -7% | inhibition [30] -8% | inhibition [31] 22% | inhibition [32] 16% | inhibition [33] 10% | inhibition (Rattus norvegicus) 4%

Source: ChEMBL document CHEMBL4507263, “Data for DCP probe BAY-474” (2021)
